Numbers after ± are expanded uncertainties.

For the series the following is noted: DSC.

As to `O=C(O)c1ccccc1Nc1cccc(C(F)(F)F)c1` [2-[[3-(trifluoromethyl)phenyl]amino]benzoic acid], the Triple point temperature came to 410.95 ± 2.1 K (Crystal 1) and 409.15 ± 2.1 K (Metastable crystal).

(Values after the NIST ThermoML archive (doi:10.1021/acs.jced.9b00278).)
